Source text: The samples were made in the standard quantity of 50 g, sufficient to perform the solubilisation and stability tests. The concentration ranges of the investigated actives and the sample preparation methods were established after a critical reading of the technical data sheets of each raw material.

Compound	individual solubilisation in the solubilising agent
CCCCCCCCCCCCCCCC(=O)NCCO [PMEA, palmitoylethanolamide]	possible to obtain the individual solubilisation
CCCCCCCCCCCCCCCC(=O)NC(C)C [isopalmide, N-isopropyl-palmitoyl amide]	possible to obtain the individual solubilisation
